Results published in US12172959B2, “Mono- or di-substituted indole derivatives as dengue viral replication inhibitors” (priority 2015, dated 2024).

Assay: Chiral stability at pH 7.4 (enantiomeric excess by Chiral SFC after incubation)
Format: physicochemical
Settings: 5 μM
Protocol: The chiral stability of Enantiomer 1A (R=OMe) was evaluated by determination of the enantiomeric excess (ee %) after incubation for 24 h and 48 h in a buffered solution at pH 7.4 at 40° C. and 60° C. To assess the influence of the methoxy-substituent of Enantiomer 1A (R=OMe) on the stability against racemization, the chiral stability of Enantiomer 1′A (R=H) was tested under the same conditions. To this end, 5 μM buffered (pH=7.4) solutions of 1A and 1′A were prepared by mixing 25 μL of a 100 μM solution of 1A or 1′A in DMSO with 475 μL aqueous buffer pH 7.4. Samples were taken 24 h and 48 h after incubation at 40° C. and 60° C. The analytical samples were analyzed by Chiral SFC (MS detection) and the chiral purity was expressed as the enantiomeric excess (ee %=% enantiomer A−% enantiomer B).

## COc1cc(NC(C(=O)c2c[nH]c3cc(F)ccc23)c2ccc(Cl)cc2OC)cc(S(C)(=O)=O)c1 (single isomer, unassigned) [Compound 1A, 2-(4-chloro-2-methoxyphenyl)-1-(6-fluoro-1H-indol-3-yl)-2-((3-methoxy-5-(methylsulfonyl)phenyl)amino)ethanone]
Buffered solution pH 7.4, 40° C., 24 h
  ee %: 100%
Buffered solution pH 7.4, 40° C., 48 h
  ee %: 100%
Buffered solution pH 7.4, 60° C., 24 h
  ee %: 95%
Buffered solution pH 7.4, 60° C., 48 h
  ee %: 88%
